Source: US7507727B2, “Substituted quinobenzoxazine analogs and methods of using thereof” (Cylene Pharmaceuticals, Inc., priority 2003, dated 2009)

What was measured:
Format in all cases: cell-based
[1] = test system: panel of cancer cell-lines; assay: MTS cell survival assay, panel of cancer cell-lines; conditions: for IC50: MTS
Protocol: The antitumor range of action of CX-3543 was tested in vitro using a panel of cancer cell-lines and evaluated using an MTS cell survival assay. Cells were exposed to CX3543 at various concentrations over a four day period, and IC50 values were calculated. Generally, 2,000 to 5,000 cells were seeded in each well of a 96-well plate and incubated overnight. A serial dilution of testing compounds was added to cells and further incubated for 4 days at 37° C., in a 5% CO2 humidified incubator. The survival cell numbers were evaluated by the MTS method as described in the manufacturer's protocol (Promega). […] In particular examples, IC50 values were measured by Alamar Blue.

[2] = test system: phosphorylated p53 [pS15]; assay: Phosphorylated p53 ELISA in HCT-116 cells; conditions: 24 hr, 1-5 uM
Protocol: The protocol for this assay is described as follows. On Day 1, cells were seeded at 2×10^6 cells/10 cm dish/10 mL medium. On day two, cells were treated as follows: control=0.05% DMSO (5 μl DMSO stock/10 ml medium); 1 μM CX3543 (1 μl Stock (10 mM)/10 ml medium); 2 μM CX3543 (2 μl Stock (10 mM)/10 ml medium); 3 μM CX3543 (3 μl Stock (10 mM)/10 ml medium); 4 μM CX3543 (4 μl Stock (10 mM)/10 ml medium) and 5 μM CX3543 (5 μl Stock (10 mM)/10 ml medium).
On Day 3, cells were harvested and attached and floating cells were collected. Cells were washed twice with PBS, counted and collected at 4×10^6 cells/sample. The cell pellet was frozen at −80° C. until further use. […]
Test Procedure. […] After washing, the plate is inverted and tapped dry on absorbance tissue. […]
Wash wells with 400 μl working wash buffer four times. […] After washing, the plate is inverted and tapped try on absorbance tissue. […] After washing, the plate is inverted and tapped try on absorbance tissue. […] Read the plate at A450 nm by setting chromogen blank (=100 μl TMB+100 μl Stop soln) as blank. Read absorbance within 2 hours of assay completion.

HCT-116 cells = assay: Annexin V-Alexa 488 staining; conditions: 2 uM and 4 uM, 24 hr
Protocol: The following protocol was followed for this example. […] Incubate o/n or up to 24 hrs at 37° C. in CO2 incubator. […] Keep one or two untreated plates (medium only) as control plates. […] Harvest cells (collect attached as well as floating cells). Wash cells twice with cold PBS. Re-suspend cells in 1× Annexin binding buffer.
Count cells and dilute in 1× Annexin binding buffer to ˜1×10^6 cells/0.1 ml, preparing a sufficient volume to have 100 μl per assay. Add 5 μl of the Annexin V conjugate to each 100 μl of cell suspension. Add 4 μl of propidium iodide solution (stock=1 mg/ml) to each 100 μl of cell suspension. Incubate sample at RT for 15 minutes. Add 400 μl Annexin binding buffer, mix gently and keep samples on ice. Analyze stained cells immediately by flow cytometry.

CN1CCCC1CCNC(=O)c1cn2c3c(c(N4CCC(c5cnccn5)C4)c(F)cc3c1=O)Oc1cc3ccccc3cc1-2 (centres unmarked) [CX-3543] gave an IC50 ([1]; 96 h, PC3 (Prostate), 4 days) of 3200 nM, an IC50 ([1]; Homo sapiens, 786-0, 96 h, 786-O, 4 days) of 2100 nM and an IC50 ([1]; Homo sapiens, 96 h, A549, 4 days) of 2900 nM. It also gave an IC50 ([1]; Homo sapiens, 96 h, HCT-116 (Colorectal), 4 days) of 3300 nM, an IC50 ([1]; Homo sapiens, 96 h, HT-29, 4 days) of 5500 nM and an IC50 ([1]; Homo sapiens, 96 h, HeLa (cervical), 4 days) of 3300 nM. It also gave an IC50 ([1]; Homo sapiens, 96 h, HepG2, 4 days) of 2500 nM, an IC50 ([1]; Homo sapiens, 96 h, MDA-MB-231 (Breast), 4 days) of 2400 nM and an IC50 ([1]; Homo sapiens, 96 h, MDA-MB-468 (Breast), 4 days) of 1500 nM. The IC50 ([1]; Homo sapiens, 96 h, Ramos (Burkitt's Lymphoma), 4 days) was 300 nM, the IC50 ([1]; Homo sapiens, MIA PaCa-2, 96 h, MiaPaca, 4 days) was 2800 nM and the “IC50 in MTS assays over a broad range of tumor types” value ([1]; four day exposure) was “submicromolar to single digit micromolar”. For the same compound, the “population of phosphorylated p53” value [2] was “enhanced” and the “staining by a dye positive for Annexin V externalization” value (HCT-116 cells) was “significant increased staining”.
